Measurements reported in patent publication US20090093443A1, “COMBINATIONS OF 4- BROMO-2-(4-CHLOROPHENYL)-5-(TRIFLUOROMETHYL)-1H-PYRROLE-3-CARBONITRILE AND BIOCIDAL COMPOUNDS” (JASSEN PHARMACEUTICA N.V., priority 2006, published 2009).

Tested on: animal fouling
Experiment: Exposure in the Oosterschelde of painted PVC boards
Details: for Coverage CO (percentage coverage) / Dry weight Dw (dry weight of fouling organisms) / Fresh weight Fw (fresh weight of fouling organisms): 18 weeks exposure, each active 2.78% in dry paint film; for Coverage CO (percentage coverage): mean of front and backsides of panels; for Dry weight Dw (dry weight of fouling organisms) / Fresh weight Fw (fresh weight of fouling organisms): total of front and backsides; for Coverage % Eo (observed efficacy) / Dry weight % Eo (observed efficacy) / Fresh weight % Eo (observed efficacy): fouling inhibition vs control, 18 weeks, each active 2.78% in dry paint; for Coverage % Eo (observed efficacy): by coverage; for Dry weight % Eo (observed efficacy): by dry weight; for Fresh weight % Eo (observed efficacy): by fresh weight
Excerpt: • Test model: exposure in the Oosterschelde of painted PVC boards • Name of the primary compound: 4-bromo-2-(4-chloro-phenyl)-5-(trifluoromethyl)-1H-pyrrole-3-carbonitrile as component (I) • Name of the combination partners: capsaicine as component (II-d); • clonidine as component (II-e); • zosteric acid as component (II-r). • Test formulations: Paint formulation comprising xylene (47.7%), light aromatic solvent naphtha (CAS 64742-95-6) (16.2%), propylene oxide (0.06%), and zinc oxid (2.24%). Paint was diluted with 10% xylene to obtain the wet paint which was applied to the panels. • Dosage: Individual test compounds were added at a concentration of 1.8% by weight in the wet paint, resulting in 2.78% by weight in the dry paint film. • Test specimens: PVC boards with dimensions of 10×2×0.5 cm. […] Percentage coverage of the panels by fouling organisms as estimated visually. • 2. Fresh weight of fouling organisms on panels in gram. • 3. Dry weight of fouling organisms on panels in gram. Synergy evaluation: Synergy was tested according to the method of Limpel (Limpel, L. E., Schuldt, P. H., and Lamont, D. Weed Control Conf. 16: 48-53, 1962) as described in Colby (Colby, S. R., Weeds 15: 20-22, 1967) and Richer (Richer, D. L., Pesticide Science 19: 309-315, 1987). The single active ingredients were applied at a concentration of 2.78% in the dried coating. In the combinations, both actives were applied at 2.78%, resulting in […] of total active ingredient.

N#Cc1c(-c2ccc(Cl)cc2)[nH]c(C(F)(F)F)c1Br [(I), 4-bromo-2-(4-chlorophenyl)-5-(trifluoromethyl)-1H-pyrrole-3-carbonitrile]
Coverage CO (percentage coverage): 42.5% | Dry weight Dw (dry weight of fouling organisms): 1.94 gram | Fresh weight Fw (fresh weight of fouling organisms): 2.90 gram | Coverage % Eo (observed efficacy): 19.8% | Dry weight % Eo (observed efficacy): 37.9% | Fresh weight % Eo (observed efficacy): 36.0%

COc1cc(CNC(=O)CCCC/C=C/C(C)C)ccc1O [(II-d), capsaicine]
Coverage CO (percentage coverage): 65.0% | Dry weight Dw (dry weight of fouling organisms): 3.58 gram | Fresh weight Fw (fresh weight of fouling organisms): 5.50 gram | Coverage % Eo (observed efficacy): −22.6% | Dry weight % Eo (observed efficacy): −14.6% | Fresh weight % Eo (observed efficacy): −21.3%

Clc1cccc(Cl)c1N=C1NCCN1 [(II-e), clonidine]
Coverage CO (percentage coverage): 72.5% | Dry weight Dw (dry weight of fouling organisms): 3.92 gram | Fresh weight Fw (fresh weight of fouling organisms): 6.10 gram | Coverage % Eo (observed efficacy): −36.8% | Dry weight % Eo (observed efficacy): −25.6% | Fresh weight % Eo (observed efficacy): −33.8%

O=C(O)/C=C/c1ccc(OS(=O)(=O)O)cc1 [(II-r), zosteric acid]
Coverage CO (percentage coverage): 57.5% | Dry weight Dw (dry weight of fouling organisms): 2.05 gram | Fresh weight Fw (fresh weight of fouling organisms): 5.40 gram | Coverage % Eo (observed efficacy): −8.5% | Dry weight % Eo (observed efficacy): 34.5% | Fresh weight % Eo (observed efficacy): −18.4%
